This is an account of results in publication PMC12173412 (PLOS Neglected Tropical Diseases, 2025).

The target in assay [1] is Niemann-Pick type C2 (NPC2). The format is binding, Haemaphysalis longicornis.
The target of assay [2] is Odor Binding Protein-like (OBPL). Set-up: species or system Haemaphysalis longicornis.
For assay [3] the target is unchanged. Also on record: species or system Haemaphysalis longicornis. This is another data set of the same source.
In assay [4] the target is Niemann-Pick type C2 (NPC2). In kind it is binding, Haemaphysalis longicornis. The source holds these as a separate data set.

The Ki is a measure of affinity in units of concentration, obtained from inhibition or displacement. Read a high Ki as a looser hold on the target. In general, Kd refers to the constant that tells how readily two partners part at equilibrium. The low end stands for higher affinity, the high end for lower affinity.

Take `c1ccc2[nH]ccc2c1` [indole]: the figures for the Ki in assay [1] and in assay [2] were 10.3 µM and 2.26 µM, respectively.

In the case of `Cc1c[nH]c2ccccc12` [3-methylindole], the Ki in assay [1] came out at 15.4 µM; in assay [2] it was 4.19 µM.

As to `c1ccc(Nc2cccc3ccccc23)cc1` [1-NPN], the Kd in assay [3] was determined as 2.56 µM; in assay [4], 3.18 µM.
